In US11459327B1, “Cycloalkyl and hetero-cycloalkyl inhibitors, preparation methods therefor, and use thereof” (Suzhou Zelgen Biopharmaceuticals Co., Ltd., priority 2019, dated 2022):
pIC50: −log10 of the molar value.

Columns and labels:
[1] = test system: NCI-H358(KRAS^G12C mutation) cells; assay: Cell assay of antiproliferative activity (Celltiter-Glo, 5 days) against NCI-H358 cells; type: cell-based; conditions: 5 days incubation
Experimental: (§1) Cell assay of antiproliferative activity of compounds against NCI-H358(KRAS^G12C mutation) and A549(KRAS^G12S mutation) cells.
(§2) 40 μl phosphate buffer was added to the outer wells of the 384 microplate, and 40 μl cell suspension to be tested was added to the other wells. Then the microplate was incubated in a carbon dioxide incubator overnight.
(§3) The compounds to be tested were gradiently diluted, each compound was performed 10 concentration gradients (diluted from 50 μM to 0.003 μM) and added 100 nL to the corresponding wells in the microplate. After addition, 40 μl of phosphate buffer was added to each well in rows A and P and columns 1 and 24, and then the microplate was incubated in a carbon dioxide incubator for 5 days.
(§4) 20 μL of Promega Celltiter-Glo reagent was added to each well of the microplate, and then the luminescence signal was stabilized by oscillating at room temperature for 10 min. Then PekinElmer Envision multi-label analyzer was used to read.
(§5) Finally, GraphPad Prism software was used to calculate the IC50 value of the compound and the fitting curve was drawn.
(§6) Anti-proliferative activity of the compounds of the present invention against NCI-H358(KRAS^G12C mutation) and A549(KRAS^G12S mutation) cells were shown in Table 1.

[2] = test system: A549(KRAS^G12S mutation) cells; assay: Cell assay of antiproliferative activity (Celltiter-Glo, 5 days) against A549 cells; type: cell-based; conditions: Homo sapiens, 120 h, 5 days incubation
Experimental: as §1, §2, §3, §4, §5, §6

pIC50 ([1]; Homo sapiens, NCI-H358, 120 h)	pIC50 [2]	Structure (SMILES)	pIC50 [1]
6.66	5.15	C=CC(=O)N1CCN(c2nc(OC[C@@H](COC)N(C)C3CCC3)nc3c2CCN(c2cccc4cccc(C)c24)C3)CC1CC#N (stereo partly drawn) [Example 1, 2-(1-acroloyl-4-(2-((R)-2-(cyclobutyl(methyl)amino)-3-methoxypropoxy)-7-(8-methylnaphthalen-1-yl)-5,6,7,8-tetrahydropyrido[3,4-d]pyrimidin-4-yl)piperazin-2-yl) acetonitrile]	–
8.11	5.37	C=CC(=O)N1CCN(c2nc(OCC3(CN(C)C)CC3)nc3c2CCN(c2cccc4cccc(Cl)c24)C3)CC1CC#N (stereo not shown) [Example 2, 2-(1-acroloyl-4-(7-(8-chloronaphthalen-1-yl)-2-((1-((dimethylamino)methyl)cyclopropyl)methoxyl)-5,6,7,8-tetrahydropyrido[3,4-d]pyrimidin-4-yl)piperazin-2-yl) acetonitrile]	–
7.41	5.15	C=CC(=O)N1CCN(c2nc(OCC3(CN(C)C)CCC3)nc3c2CCN(c2cccc4cccc(Cl)c24)C3)CC1CC#N (stereo not shown) [Example 3, 2-(1-acroloyl-4-(7-(8-chloronaphthalen-1-yl)-2-((1-((dimethylamino)methyl)cyclobutyl)methoxyl)-5,6,7,8-tetrahydropyrido[3,4-d]pyrimidin-4-yl)piperazin-2-yl) acetonitrile]	–
7.22	5.15	C=CC(=O)N1CCN(c2nc(OCCN(CCOC)C3CCC3)nc3c2CCN(c2cccc4cccc(Cl)c24)C3)CC1CC#N (stereo not shown) [Example 5]	–
6.96	5.00	C=CC(=O)N1CCN(c2nc(OCCN(C)CC3CC3(F)F)nc3c2CCN(c2cccc4cccc(Cl)c24)C3)CC1CC#N (stereo not shown) [Example 6]	–
6.80	4.75	C=CC(=O)N1CCN(c2nc(OC[C@H](C(C)C)N(C)C3CCC3)nc3c2CCN(c2cccc4cccc(Cl)c24)C3)CC1CC#N (stereo partly drawn) [Example 9, 2-(1-acroloyl-4-(7-(8-chloronaphthalen-1-yl)-2-((S)-2-(cyclobutyl(methyl)amino)-3-methylbutyloxy)-5,6,7,8-tetrahydropyrido[3,4-d]pyrimidin-4-yl)piperazin-2-yl) acetonitrile]	–
6.96	5.49	C=C(F)C(=O)N1CCN(c2nc(OCCN(C)C3CCC3)nc3c2CCN(c2cccc4cccc(Cl)c24)C3)CC1CC#N (stereo not shown) [Example 11, 2-(4-(7-(8-chloronaphthalen-1-yl)-2-(2-(cyclobutyl(methyl)amino)ethoxy)-5,6,7,8-tetrahydropyrido[3,4-d]pyrimidin-4-yl)-1-(2-fluoroacroloyl)piperazin-2-yl) acetonitrile]	–
6.85	5.64	C=C(F)C(=O)N1CCN(c2nc(OC[C@H](C)N(C)C3CCC3)nc3c2CCN(c2cccc4cccc(Cl)c24)C3)CC1CC#N (stereo partly shown) [Example 12]	–
7.35	–	C=C(F)C(=O)N1CCN(c2nc(OCC3(CN4CC(F)C4)CC3)nc3c2CCN(c2cccc4ccc(F)c(Cl)c24)C3)C[C@@H]1CC#N [Example 65, (S)-2-(4-(7-(8-chloro-7-fluoronaphthalen-1-yl)-2-((1-((3-fluoroazetidin-1-yl)methyl)cyclopropyl)methoxy)-5,6,7,8-tetrahydropyrido[3,4-d]pyrimidin-4-yl)-1-(2-fluoroacroloyl)piperazin-2-yl) acetonitrile]	–
7.07	–	C=C(F)C(=O)N1CCN(c2nc(OCC3(CN4CC(O)C4)CC3)nc3c2CCN(c2cccc4ccc(F)c(Cl)c24)C3)C[C@@H]1CC#N [Example 68, (S)-2-(4-(7-(8-chloro-7-fluoronaphthalen-1-yl)-2-((1-((3-hydroxyazetidin-1-yl)methyl)cyclopropyl)methoxy)-5,6,7,8-tetrahydropyrido [3,4-d]pyrimidin-4-yl)-1-(2-fluoroacroloyl)piperazin-2-yl) acetonitrile]	–
7.23	–	C=C(F)C(=O)N1CCN(c2nc(OCC3(CN(C)CCOC)CC3)nc3c2CCN(c2cccc4cccc(Cl)c24)C3)C[C@@H]1CC#N [Example 69]	–
> 7.00	–	C=CC(=O)N1CCN(c2nc(OCCN(C)C3CC(F)(F)C3)nc3c2CCN(c2cccc4cccc(C)c24)C3)CC1CC#N (stereo not shown) [Example 85]	–
> 7.00	–	C=CC(=O)N1CCN(c2nc(OC[C@@H](C)N(C)C3CCC3)nc3c2CCN(c2cccc4cccc(C)c24)C3)CC1CC#N (stereo partly drawn) [Example 92, 2-(1-acroloyl-4-(2-((R)-2-(cyclobutyl(methyl)amino)propoxy)-7-(8-methylnaphthalen-1-yl)-5,6,7,8-tetrahydropyrido[3,4-d]pyrimidin-4-yl)piperazin-2-yl) acetonitrile]	–

Second part, the molecule before the results:

Structure (SMILES)	pIC50 ([1]; Homo sapiens, NCI-H358, 120 h)	pIC50 [2]	pIC50 [1]
C=CC(=O)N1CCN(c2nc(OCCN(C)CC3(F)CC3)nc3c2CCN(c2cccc4cccc(C)c24)C3)CC1CC#N (stereo not shown) [Example 4]	–	5.02	6.68
C=CC(=O)N1CCN(c2nc(OCCN(C)C3COC3)nc3c2CCN(c2cccc4cccc(C)c24)C3)CC1CC#N (stereo not shown) [Example 7, 2-(1-acroloyl-4-(2-(2-(methyl(cyclobutoxy-3-yl)amino)ethyoxyl)-7-(8-methylnaphthalen-1-yl)-5,6,7,8-tetrahydropyrido[3,4-d]pyrimidin-4-yl)piperazin-2-yl) acetonitrile]	7.14	5.09	–
C=CC(=O)N1CCN(c2nc(OC[C@H](CC)N(C)C3CCC3)nc3c2CCN(c2cccc4cccc(Cl)c24)C3)CC1CC#N (stereo partly drawn) [Example 8, 2-(1-acroloyl-4-(7-(8-chloronaphthalen-1-yl)-2-((S)-2-(cyclobutyl (methyl)amino)butyloxy)-5,6,7,8-tetrahydropyrido[3,4-d]pyrimidin-4-yl)piperazin-2-yl) acetonitrile]	6.89	5.15	–
C=CC(=O)N1CCN(c2nc(OCCN(CC(F)(F)F)C3CCC3)nc3c2CCN(c2cccc4cccc(Cl)c24)C3)CC1CC#N (stereo not shown) [Example 10, 2-(1-acroloyl-4-(7-(8-chloronaphthalen-1-yl)-2-(2-(cyclobutyl(2,2,2-trifluoroethyl)amino)ethoxy)-5,6,7,8-tetrahydropyrido[3,4-d]pyrimidin-4-yl)piperazin-2-yl) acetonitrile]	5.19	4.76	–
C=C(F)C(=O)N1CCN(c2nc(OCC3(CN4CC(F)C4)CC3)nc3c2CCN(c2cccc4ccc(F)cc24)C3)C[C@@H]1CC#N [Example 66]	6.74	–	–
C=C(F)C(=O)N1CCN(c2nc(OCC3(CN4CC(C)C4)CC3)nc3c2CCN(c2cccc4ccc(F)c(Cl)c24)C3)C[C@@H]1CC#N [Example 67, (S)-2-(4-(7-(8-chloro-7-fluoronaphthalen-1-yl)-2-((1-((3-methylazetidin-1-yl)methyl)cyclopropyl)methoxy)-5,6,7,8-tetrahydropyrido[3,4-d]pyrimidin-4-yl)-1-(2-fluoroacroloyl)piperazin-2-yl) acetonitrile]	7.29	–	–
C=CC(=O)N1CCN(c2nc(OCCN(C)CC3(F)CC3)nc3c2CCN(c2cccc4cccc(C)c24)C3)CC1CC#N (stereo not shown) [Example 80, 2-(1-acroloyl-4-(2-(2-(((1-fluorocyclopropyl)methyl) (methyl)amino)ethoxy)-7-(8-methylnaphthalen-1-yl)-5,6,7,8-tetrahydropyrido[3,4-d]pyrimidin-4-yl)piperazin-2-yl) acetonitrile]	–	–	> 7.00
C=CC(=O)N1CCN(c2nc(OC[C@H](C)N(C)C3CCC3)nc3c2CCN(c2cccc4cccc(C)c24)C3)C[C@@H]1CC#N [Example 91A, 2-((S)-1-acroloyl-4-(2-((S)-2-(cyclobutyl(methyl)amino)propoxy)-7-(8-methylnaphthalen-1-yl)-5,6,7,8-tetrahydropyrido[3,4-d]pyrimidin-4-yl)piperazin-2-yl) acetonitrile]	–	–	> 7.52
C=CC(=O)N1CCN(c2nc(OC[C@H](C)N(C)C3CCC3)nc3c2CCN(c2cccc4cccc(C)c24)C3)C[C@H]1CC#N [Example 91B, 2-((R)-1-acroloyl-4-(2-((S)-2-(cyclobutyl(methyl)amino)propoxy)-7-(8-methylnaphthalen-1-yl)-5,6,7,8-tetrahydropyrido[3,4-d]pyrimidin-4-yl)piperazin-2-yl) acetonitrile]	–	–	> 6.00
C=CC(=O)N1CCN(c2nc(OCCN(C)CC3CC3)nc3c2CCN(c2cccc(F)c2C(F)(F)F)C3)CC1 [Example 95]	5.20	–	–
C=C(F)C(=O)N1CCN(c2nc(OCC3(CN(C)C)CC3)nc3c2C[C@H](C)N(c2cccc4ccc(F)c(Cl)c24)C3)C[C@@H]1CC#N [Example 96A, 2-((S)-4-((S)-7-(8-chloro-7-fluoronaphthalen-1-yl)-2-((1-((dimethylamino)methyl)cyclopropyl)methoxy)-6-methyl-5,6,7,8-tetrahydropyrido[3,4-d]pyrimidin-4-yl)-1-(2-fluoroacroloyl)piperazin-2-yl) acetonitrile]	–	–	6.72
C=C(F)C(=O)N1CCN(c2nc(OCC3(CN(C)C)CC3)nc3c2C[C@@H](C)N(c2cccc4ccc(F)c(Cl)c24)C3)C[C@@H]1CC#N [Example 96B, 2-((S)-4-((R)-7-(8-chloro-7-fluoronaphthalen-1-yl)-2-((1-((dimethylamino)methyl)cyclopropyl)methoxy)-6-methyl-5,6,7,8-tetrahydropyrido[3,4-d]pyrimidin-4-yl)-1-(2-fluoroacroloyl)piperazin-2-yl) acetonitrile]	–	–	8.30
